As usually defined, the pIC50 is the IC50 on a negative log10 scale, so that one unit is a factor of ten. The low end stands for a high IC50, the high end for a low IC50.

pIC50: −log10 of the molar value. Some results are limits rather than exact numbers.

This assay has as its target SARS-CoV-2 3CL-protease (Severe acute respiratory syndrome coronavirus 2, UniProt P0DTD1). The experiment in a line: SARS-CoV-2 3C-Like (3CL) Protease Fluorescence Assay (FRET). It is filed as biochemical. The settings on record: SARS-CoV-2 3CL-protease 10 nM, 30 min preincubation at RT, substrate 40 μM.
As to `CN(C(=O)c1cnn(-c2ccc(C(F)(F)F)cc2)c1)[C@@H](CC1CC1)C(=O)N1C[C@]2(C[C@H]1C#N)C(=O)Nc1ccccc12` [Example 406], the pIC50 was above 7.00.
Turning to `CC(C)C[C@@H](C(=O)N1C[C@]2(C[C@H]1C#N)C(=O)Nc1ccccc12)N(C)C(=O)c1cc2ccccc2s1` [Example 207], the pIC50 is above 7.00.
The value for `CC(C)(C)C[C@H](NC(=O)NC1CCCCC1)C(=O)N1C[C@]2(C[C@H]1C#N)C(=O)Nc1ccccc12` [Example 440] was above 7.00; that for `CC(C)C[C@H](NC(=O)c1cc2c(F)cccc2[nH]1)C(=O)N1C[C@]2(C[C@H]1C#N)C(=O)Nc1c(Cl)cccc12` [Example 533] was above 7.00.
In the case of `CC(C)C[C@@H](C(=O)N1C[C@]2(C[C@H]1C#N)C(=O)Nc1ccccc12)N(C)C(=O)c1cc(F)c2nc(C3CC3)c(C(=O)C(F)(F)F)n2c1` [Example 314], the pIC50 is 6.00 to 7.00.
The value for `CC(C)(C)C[C@H](NC(=O)c1cn(-c2ccc(Cl)cc2)nn1)C(=O)N1C[C@]2(C[C@H]1C#N)C(=O)Nc1ccccc12` [Example 140] was 6.00 to 7.00; that for `COc1ccc(C(=O)N(C)[C@@H](CC(C)C)C(=O)N2C[C@]3(C[C@H]2C#N)C(=O)Nc2ccccc23)cc1F` [Example 182] was above 7.00; that for `CN(C(=O)c1cc2cccnc2[nH]1)[C@@H](CC(C)(C)F)C(=O)N1C[C@]2(C[C@H]1C#N)C(=O)Nc1ccccc12` [Example 466] was above 7.00.
For `CC(C)C[C@@H](C(=O)N1C[C@]2(C[C@H]1C#N)C(=O)Nc1ccccc12)N(C(=O)C(F)(F)F)C(C)C` [Example 432] the value was below 6.00; for `CC(C)(C)C[C@H](NC(=O)c1cnn(-c2ccc(C(F)(F)F)cc2)c1)C(=O)N1C[C@]2(C[C@H]1C#N)C(=O)Nc1ccccc12` [Example 145], above 7.00.
For `[2H]C([2H])([2H])N(C(=O)c1ccc2ncc(C(F)(F)F)cc2c1)[C@@H](CC(C)(C)C)C(=O)N1C[C@]2(C[C@H]1C#N)C(=O)Nc1ccccc12` [Example 381], the pIC50 is above 7.00.
On to `CC(C)(C)C[C@H](NC(=O)c1cc(OC(F)(F)F)c2ncccc2c1)C(=O)N1C[C@]2(C[C@H]1C#N)C(=O)Nc1ccccc12` [Example 137], for which the pIC50 is above 7.00.
The value for `CC(C)(C)C[C@H](NC(=O)Nc1c(F)cccc1F)C(=O)N1C[C@]2(C[C@H]1C#N)C(=O)Nc1ccccc12` [Example 437] was 6.00 to 7.00; that for `CC(C)C[C@@H](C(=O)N1C[C@]2(C[C@H]1C#N)C(=O)Nc1ccccc12)N(C)C(=O)c1ccc2c(c1)OC(F)(F)O2` [Example 190] was 6.00 to 7.00; that for `CCCOC[C@H](NC(=O)c1cc2c(OC)cccc2[nH]1)C(=O)N1C[C@]2(C[C@H]1C#N)C(=O)Nc1ccccc12` [Example 126] was above 7.00.
The value for `CC(C)C[C@@H](C(=O)N1C[C@]2(C[C@H]1C#N)C(=O)Nc1ccccc12)N(C)C(=O)c1ccc2c(F)cc(F)cc2n1` [Example 290] was 6.00 to 7.00; that for `CC(C)C[C@@H](C(=O)N1C[C@]2(C[C@H]1C#N)C(=O)Nc1ccccc12)N(C)C(=O)c1cc(Cl)c2[nH]c(C3CC3)nc2c1` [Example 256] was above 7.00; that for `CC(C)C[C@@H](C(=O)N1C[C@]2(C[C@H]1C#N)C(=O)Nc1ccccc12)N(C)C(=O)c1cccc(-c2ccc(C#N)cc2)c1` [Example 265] was 6.00 to 7.00.
In the case of `CC(C)C[C@@H](C(=O)N1C[C@]2(C[C@H]1C#N)C(=O)Nc1ccccc12)N(C)C(=O)c1ccc2c(Br)cccc2n1` [Example 231], the pIC50 is 6.00 to 7.00.
For `CC(C)C[C@@H](C(=O)N1C[C@]2(C[C@H]1C#N)C(=O)Nc1ccccc12)N(C)C(=O)c1cncc2ccccc12` [Example 295] the value was above 7.00; for `CN(C(=O)c1cn(C(C)(C)C)nn1)[C@@H](CC1CC1)C(=O)N1C[C@]2(C[C@H]1C#N)C(=O)Nc1ccccc12` [Example 402], above 7.00.
The value for `N#C[C@@H]1C[C@@]2(CN1C(=O)[C@H](CN1CCCC1=O)NC(=O)OCc1ccccc1)C(=O)Nc1ccccc12` [Example 548, benzyl ((S)-1-((3R,5′S)-5′-cyano-2-oxospiro[indoline-3,3′-pyrrolidin]-1′-yl)-1-oxo-3-(2-oxopyrrolidin-1-yl)propan-2-yl)carbamate] was 6.00 to 7.00; that for `CC(C)C[C@@H](C(=O)N1C[C@]2(C[C@H]1C#N)C(=O)Nc1ccccc12)N(C)C(=O)c1ccc(Cl)cc1Cl` [Example 168] was above 7.00; that for `CN(C(=O)c1cc2c(F)cc(F)cc2[nH]1)[C@@H](Cc1cccc(F)c1)C(=O)N1C[C@]2(C[C@H]1C#N)C(=O)Nc1ccccc12` [Example 389] was above 7.00.
Regarding `Cc1ccc2cc(C(=O)N(C)[C@@H](CC(C)C)C(=O)N3C[C@]4(C[C@H]3C#N)C(=O)Nc3ccccc34)ccc2n1` [Example 234], the pIC50 is above 7.00.
Turning to `[2H]C([2H])([2H])N(C(=O)c1cnn(C(C)(C)C)c1C(F)(F)F)[C@@H](CC1CC1)C(=O)N1C[C@]2(C[C@H]1C#N)C(=O)Nc1ccccc12` [Example 400], the pIC50 is above 7.00.
With `CC(C)C[C@@H](C(=O)N1C[C@]2(C[C@H]1C#N)C(=O)Nc1ccccc12)N(C)C(=O)c1ccnc2cccc(F)c12` [Example 306], the pIC50 was above 7.00.
The value for `CCCC[C@@H](C(=O)N1C[C@]2(C[C@H]1C#N)C(=O)Nc1ccccc12)N(C)C(=O)c1cnn(C(C)(C)C)c1` [Example 408] was above 7.00; that for `CCCC[C@H](NC(=O)[C@H](O)c1ccc(F)cc1)C(=O)N1C[C@]2(C[C@H]1C#N)C(=O)Nc1ccccc12` [Example 419] was above 7.00; that for `CC(C)C[C@@H](C(=O)N1C[C@]2(C[C@H]1C#N)C(=O)Nc1ccccc12)N(C)C(=O)c1cc(F)c2nc(C3CC3)[nH]c2c1` [Example 340] was 6.00 to 7.00.
In turn, `CC(C)C[C@@H](C(=O)N1C[C@]2(C[C@H]1C#N)C(=O)Nc1ccccc12)N(C)C(=O)CCNC(=O)c1ccc(F)cc1F` [Example 368] gave a negative-log IC50 (pIC50) above 7.00.
For `CC(C)C[C@@H](C(=O)N1C[C@]2(C[C@H]1C#N)C(=O)Nc1ccccc12)N(C)C(=O)[C@H](c1cn(C)nn1)C(C)C` [Example 351] the value was above 7.00; for `[2H]C([2H])([2H])N(C(=O)c1cc(OC(F)(F)F)c2ncccc2c1)[C@@H](CC(C)(C)C)C(=O)N1C[C@]2(C[C@H]1C#N)C(=O)Nc1ccccc12` [Example 382], above 7.00.
For `CC(C)C[C@@H](C(=O)N1C[C@]2(C[C@H]1C#N)C(=O)Nc1ccccc12)N(C)C(=O)c1cc(F)c2nc(C3CC3)cn2c1` [Example 318] the value was above 7.00.
The compound `CC(C)C[C@@H](C(=O)N1C[C@]2(C[C@H]1C#N)C(=O)Nc1ccccc12)N(C)C(=O)CCN` [Example 367] showed a pIC50 above 7.00.
Turning to `CC(C)(C)OC(=O)NC[C@H](NC(=O)c1cc2c(F)cc(F)cc2[nH]1)C(=O)N1C[C@]2(C[C@H]1C#N)C(=O)Nc1ccccc12` [Example 128], the negative logarithm of the IC50 (pIC50) was below 6.00.
Regarding `CC(C)C[C@@H](C(=O)N1C[C@]2(C[C@H]1C#N)C(=O)Nc1ccccc12)N(C)C(=O)c1ccc2nccnc2c1` [Example 297], the pIC50 was 6.00 to 7.00.
For `CC(C)C[C@@H](C(=O)N1C[C@]2(C[C@H]1C#N)C(=O)Nc1ccccc12)N(C)C(=O)c1ccc(F)c2ccccc12` [Example 221] the value was above 7.00.
For `CC(C)C[C@@H](C(=O)N1C[C@]2(C[C@H]1C#N)C(=O)Nc1ccccc12)N(C)C(=O)c1c(Cl)cc(Cl)cc1Cl` [Example 185] the value was above 7.00; for `N#C[C@@H]1C[C@@]2(CN1C(=O)[C@H](COCc1cnn[nH]1)NC(=O)c1cc3c(F)cc(F)cc3[nH]1)C(=O)Nc1ccccc12` [Example 129], below 6.00.
`Cc1ccc2cc(C(=O)N(C)[C@@H](CC(C)C)C(=O)N3C[C@]4(C[C@H]3C#N)C(=O)Nc3ccccc34)[nH]c2n1` [Example 465] had a pIC50 above 7.00.
In turn, `Cc1cccc(C)c1NC(=O)N[C@@H](CC(C)(C)C)C(=O)N1C[C@]2(C[C@H]1C#N)C(=O)Nc1ccccc12` [Example 438] had a pIC50 of 6.00 to 7.00.
For `[2H]C([2H])([2H])N(C(=O)[C@@H](O)c1ccccc1)[C@@H](CC(C)(C)C)C(=O)N1C[C@]2(C[C@H]1C#N)C(=O)Nc1ccccc12` [Example 427] the value was above 7.00; for `CC(C)C[C@@H](C(=O)N1C[C@]2(C[C@H]1C#N)C(=O)Nc1ccccc12)N(C)C(=O)c1ccc2ccsc2c1` [Example 246], 6.00 to 7.00; for `CC(C)C[C@@H](C(=O)N1C[C@]2(C[C@H]1C#N)C(=O)Nc1ccccc12)N(C)C(=O)CC1CC1` [Example 364], above 7.00.
For `CCN(CC)CCC(=O)N(C)[C@@H](CC(C)(C)F)C(=O)N1C[C@]2(C[C@H]1C#N)C(=O)Nc1ccccc12` [Example 544] the value was above 7.00; for `Cc1c(C(=O)N[C@@H](CC2CC2)C(=O)N2C[C@]3(C[C@H]2C#N)C(=O)Nc2ccc(Cl)cc23)sc2cccc(F)c12` [Example 519, N—((S)-1-((3R,5′S)-5-chloro-5′-cyano-2-oxospiro[indoline-3,3′-pyrrolidin]-1′-yl)-3-cyclopropyl-1-oxopropan-2-yl)-4-fluoro-3-methylbenzo[b]thiophene-2-carboxamide], above 7.00.
The compound `Cc1cnc2[nH]c(C(=O)N(C)[C@@H](CC3CC3)C(=O)N3C[C@]4(C[C@H]3C#N)C(=O)Nc3ccc(Cl)cc34)cc2c1` [Example 461] gave a pIC50 above 7.00.
`CC(=O)C[C@@H](C(=O)N1C[C@]2(C[C@H]1C#N)C(=O)Nc1ccccc12)N(C)C(=O)c1cc2c(F)cc(F)cc2[nH]1` [Example 442] showed a pIC50 above 7.00.
`CC(C)C[C@@H](C(=O)N1C[C@]2(C[C@H]1C#N)C(=O)Nc1ccccc12)N(C)C(=O)c1cc2nccnc2[nH]1` [Example 490] showed a pIC50 above 7.00.
The compound `CN(C(=O)Cc1cccc(C(F)(F)F)n1)[C@@H](CC(C)(C)F)C(=O)N1C[C@]2(C[C@H]1C#N)C(=O)Nc1ccc(Cl)cc12` [Example 485] showed a pIC50 of 6.00 to 7.00.

Values taken from US12540141B2, “Spiropyrrolidine derived antiviral agents” (priority 2020, dated 2026).
